One data set concerns the target T1, GUN1-PS (Arabidopsis thaliana, UniProt Q9SIC9).
T1 sequence (Q9SIC9 232-918): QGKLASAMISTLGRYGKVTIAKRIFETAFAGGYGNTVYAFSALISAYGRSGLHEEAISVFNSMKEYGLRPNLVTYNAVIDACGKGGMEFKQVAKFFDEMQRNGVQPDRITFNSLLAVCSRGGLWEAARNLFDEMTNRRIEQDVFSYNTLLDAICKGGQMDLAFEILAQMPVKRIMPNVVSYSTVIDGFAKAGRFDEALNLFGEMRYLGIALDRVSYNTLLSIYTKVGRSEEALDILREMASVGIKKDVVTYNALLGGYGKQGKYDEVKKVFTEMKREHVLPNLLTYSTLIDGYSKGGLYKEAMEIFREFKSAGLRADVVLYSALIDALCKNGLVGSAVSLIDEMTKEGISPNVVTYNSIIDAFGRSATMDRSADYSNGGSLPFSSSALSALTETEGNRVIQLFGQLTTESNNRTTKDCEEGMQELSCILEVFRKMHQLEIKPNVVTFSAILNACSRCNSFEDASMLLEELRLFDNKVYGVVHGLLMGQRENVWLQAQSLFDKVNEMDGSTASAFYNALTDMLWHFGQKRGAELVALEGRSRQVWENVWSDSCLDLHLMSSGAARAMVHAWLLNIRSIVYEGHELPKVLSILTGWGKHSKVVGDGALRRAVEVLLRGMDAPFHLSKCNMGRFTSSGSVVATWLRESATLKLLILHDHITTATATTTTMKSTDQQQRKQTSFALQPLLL
In words: differential absorption spectrophotometry. The data set is classed as binding.

Substrate in the data set “purified protein”: C=CC1=C(C)c2cc3[nH]c(cc4nc(cc5[nH]c(cc1n2)c(C)c5CCC(=O)O)C(CCC(=O)O)=C4C)c(C)c3C=C
In words: purified protein. As to conditions: Zn chelation; without GUN1-PS.

In general, Kd refers to the concentration at which binding is half-saturated. The low end stands for higher affinity, the high end for lower affinity. The Km is the substrate concentration at which the rate is half of its maximum.

With `C=CC1=C(C)c2cc3[nH]c(cc4nc(cc5[nH]c(cc1n2)c(C)c5CCC(=O)O)C(CCC(=O)O)=C4C)c(C)c3C=C` [Proto IX], on GUN1-PS, the Kd is 4.42 ± 0.56 µM.
`C=CC1=C(C)C2=Cc3c(C=C)c(C)c4[n]3[Fe]([Cl])[n]3c(c(C)c(CCC(=O)O)c3=CC3=NC(=C4)C(C)=C3CCC(=O)O)=CC1=N2` [hemin] registered a Kd on GUN1-PS of 6.08 ± 1.11 µM.

B1: FC1 (Arabidopsis thaliana) (protein)
chain: CDIKERSFGESMTITNRGLSFKTNVFEQARSVTGDCSYDETSAKARSHVVAEDKIGVLLLNLGGPETLNDVQPFLYNLFADPDIIRLPRPFQFLQGTIAKFISVVRAPKSKEGYAAIGGGSPLRKITDEQADAIKMSLQAKNIAANVYVGMRYWYPFTEEAVQQIKKDKITRLVVLPLYPQYSISTTGSSIRVLQDLFRKDPYLAGVPVAIIKSWYQRRGYVNSMADLIEKELQTFSDPKEVMIFFSAHGVPVSYVENAGDPYQKQMEECIDLIMEELKARGVLNDHKLAYQSRVGPVQWLKPYTDEVLVDLGKSGVKSLLAVPVSFVSEHIETLEEIDMEYRELALESGVENWGRVPALGLTPSFITDLADAVIESLPSAEAMSNPNAVVDSEDSESSDAFSYIVKMFFGSILAFVLLLSPKMFHAFRNL
For the molecule B1, the Km in the data set “purified protein” amounted to 26.5 µM.

For the origin of these results see article PMC6900522 (Proceedings of the National Academy of Sciences of the …, 2019).
